Experimental data from patent publication US4263437A, “Acetic acid derivatives of 5,6-dihydrobenzo[b]pyrido[3,2-f]thiepine and oxepine” (Nippon Chemiphar Co., Ltd., priority 1978, dated 1981).

What follows are compounds tested on carrageenan-induced edema in the hind paws (assay: Carrageenan-induced hind paw edema in rats (oral administration)). Details: Rattus norvegicus, 1 hour before 0.1 ml of 1% carrageenan, 3 hours.
Type: in vivo, Male Wistar rats
Procedure: Male Wistar rats each weighing about 100 g, one group consisting of 5 to 7 animals, were orally given the compounds according to this invention, and edema was induced in the hind paws by subcutaneous injections of 0.1 ml of 1% carrageenan one hour after the administration of the test compounds. Thereafter, the volumes of the hind paws were measured by a volume differential meter.

Compound	inhibition in vivo at 5 mg/kg [%]
O=C(O)Cc1ccc2c(c1)C(=O)Cc1ccccc1S2 [Compound 1, (10,11-Dihydro-11-oxo dibenzo[b,f]thiepin-2-yl)-acetic acid]	58
NC(=O)Cc1ccc2c(c1)C(=O)Cc1ccccc1S2 [Compound 2, (10,11-Dihydro-11-oxo dibenzo[b,f]thiepin-2-yl)-acetamide]	42.1
CCOC(=O)Cc1ccc2c(c1)C(=O)Cc1ccccc1S2 [Compound 3, Ethyl(10,11-dihydro-11-oxodibenzo[b,f]thiepin-2-yl)-acetate]	50.6
O=C(O)Cc1ccc2c(c1)CCc1ccccc1S2 [Compound 4, (10,11-Dihydro dibenzo[b,f]thiepin-2-yl)-acetic acid]	45.3
CCOC(=O)Cc1ccc2c(c1)CCc1ccccc1S2 [Compound 5, Ethyl(10,11-dihydrodibenzo[b,f]thiepin-2-yl)-acetate]	46
O=C(O)Cc1ccc2c(c1)C(=O)Cc1ccccc1O2 [Compound 6, (10,11-dihydro-11-oxo dibenzo[b,f]oxepin-2-yl)-acetic acid]	44.1
CCOC(=O)Cc1ccc2c(c1)C(=O)Cc1ccccc1O2 [Compound 7, Ethyl(10,11-dihydro-11-oxodibenzo[b,f]oxepin-2-yl)-acetate]	47.9
O=C(O)Cc1ccc2c(c1)CCc1ccccc1O2 [Compound 8, (10,11-Dihydro dibenzo[b,f]oxepin-2-yl)-acetic acid]	61.4
CCOC(=O)Cc1ccc2c(c1)CCc1ccccc1O2 [Compound 9, Ethyl (10,11-dihydro dibenzo[b,f]oxepin-2-yl)-acetate]	63.4
COC(=O)Cc1ccc2c(c1)C(=O)Cc1cccnc1S2 [Compound 10, Methyl (5,6-dihydro-6-oxo benzo[b]pyrido[3,2-f]thiepin-8-yl)-acetate]	38.4
O=C(O)Cc1ccc2c(c1)CCc1cccnc1S2 [Compound 11, (5,6-Dihydro benzo[b]pyrido[3,2-f]thiepin-8-yl)-acetic acid]	59.7
NC(=O)Cc1ccc2c(c1)CCc1cccnc1S2 [Compound 12, (5,6-Dihydro benzo[b]pyrido[3,2-f]thiepin-8yl)-acetamide]	43.9
CCOC(=O)Cc1ccc2c(c1)CCc1cccnc1S2 [Compound 13, Ethyl(5,6-dihydrobenzo[b]pyrido[3,2-f]thiepin-8-yl)-acetate]	64.6
O=C(O)Cc1ccc2c(c1)CCc1cccnc1O2 [Compound 14, (5,6-Dihydro benzo[b]pyrido[3,2-f]oxepin-8-yl)-acetic acid]	50.6
CCOC(=O)Cc1ccc2c(c1)CCc1cccnc1O2 [Compound 15, Ethyl(5,6-dihydrobenzo[b]pyrido[3,2-f]oxepin-8-yl)-acetate]	41.6
O=C(O)c1ccccc1Nc1cccc(C(F)(F)F)c1 [Flufenamic acid, reference compound]	29.3
CCCCC1C(=O)N(c2ccccc2)N(c2ccccc2)C1=O [Phenylbutazone, reference compound]	20.9
